# Test results reported in US20250269072A1, “PROCESSES FOR PREPARING RADIOLABELLED CONJUGATES” (CENTENARY INSTITUTE OF CANCER MEDICINE AND CELL BIOLOGY, priority 2021, published 2025).
# Columns and labels:
# [1] = In-human study of ^68Ga-CDI: safety and tolerability; type: in vivo; settings: 5 subjects
# Source text: This open label, single arm interventional study recruited subjects with histologically or cytologically confirmed solid malignancy with at least one measurable lesion >2 cm. The study was approved by the South Eastern Sydney Local Health District Human Research Ethics committee (2019/ETH04821) and all subjects signed an informed consent form. […] Within 28 days of undergoing the study subjects were screened to ensure they met inclusion and exclusion criteria and written consent obtained. Although not an inclusion criteria for participation in this study, all patients also underwent an FDG PET CT between 3-11 days prior to CDI PET CT as part of standard of care.
# Subjects were encouraged to be well orally hydrated prior to ^68Ga-CDI administration, otherwise there was no preparation required. Two intravenous cannulas were placed (one for administration of ^68Ga-CDI and the other blood sampling during the study). Immediately prior to ^68Ga-CDI administration clinical assessment of participants was performed, vital signs (blood pressure, heart rate, respiratory rate, arterial oxygen saturation and temperature) measured and a 12-lead electrocardiogram (ECG) obtained and QTc calculated according to Bazett's formula to confirm eligibility. ^68Ga-CDI was administered as an intravenous bolus.
# During and immediately following completion of the scanning protocol, subjects were clinically assessed for adverse reactions and vital signs measured. Blood was collected for venous radioactivity measurements at 1, 2 and 3 hours following ^68Ga-CDI administration. Subjects were asked to void between 1.5 to 2 h and 2.75 to 3 h after ^68Ga-CDI administration, urine collected, the volume measured, and an aliquot counted in a gamma counter to determine activity concentration. Following completion of the scanning protocol, ECG was recorded, and blood collected for biochemical and haematological assessment.
# On the day following the ^68Ga-CDI PET CT subjects were clinically assessed for adverse reactions, vital signs, ECG obtained, and blood collected for biochemical and haematological assessment. […]
# [2] = Biodistribution in healthy male rats; type: in vivo, rats (Lewis); settings: rat
# Description: Biodistribution was studied in ten healthy male rats (Lewis, Liverpool Hospital Animal Facility) aged 6-8 weeks. Five rats were administered with ^68Ga-NODAGA-GSAO. The rats were housed singly in a cage with impervious absorbent matting and at 1 hour post administration 5 rats were sacrificed by lethal carbon dioxide overdose. Immediately post mortem, blood was sampled via cardiac puncture. Two of the 5 rats were then imaged by PET CT (GE Discovery 710). The PET CT scan comprised a CT scan (80 kVp, 20 mA, helical mode, reconstructed slice thickness of 0.625 mm) followed by a PET scan (2 bed positions, 7.5 min/bed position, 256×256 reconstruction matrix, slice thickness 3.27 mm).
# All of the rats were then dissected, organs sampled and weighed and counted in a gamma counter, and the cpm value converted to MBq using a known standard. The activity in the remaining carcass was measured in a dose calibrator.
# Biodistribution studies were performed in a further 5 rats at two hours following ^68Ga-NODAGA GSAO administration.
# Injected activity was corrected by measuring residual activity left in the syringe after injection in a dose calibrator. To correct for any dose extravasated at the injection site the tail was harvested and the activity in the tail was subtracted from the administered activity. All calculations were decayed corrected using the injection time as the reference.
# Biodistribution was expressed as % ID/g and % ID/organ. % retained activity was the sum total of all activity in all individually harvested organs as well as the activity in the remaining carcass as a percentage of the injected dose. % recovered activity was the sum total of all activity in all individually harvested organs as well as the activity in the remaining carcass and excreted activity in the impervious matting as a percentage of the injected dose.
structure (smiles),measurement,setting,value
O=C(O)CNC(=O)[C@H](CSCC(=O)Nc1ccc([As](O)O)cc1)NC(=O)CC[C@H](NC(=O)CCC1C(=O)[O][68Ga]2[O]C(=O)CN3CCN(CCN1CC3)CC(=O)[O]2)C(=O)O (stereo partly shown) [^68Ga-NODAGA-GSAO],adverse or pharmacologic effects,[1],no adverse or clinically detectable pharmacologic effects
same,"vital signs, laboratory studies, electrocardiograms",[1],No significant changes
same,tolerability,[1]; 205±4.1 MBq i.v.,well tolerated
same,injected activity retained within the animal,[2]; 1 hour,32.4%
same,mean total recovered activity,[2]; 1 hour,84.9 % of injected activity
same,injected activity retained within the animal,[2]; 2 hours,21.4%
same,total recovered activity,[2]; 2 hours,75.3 % of injected activity
